Earlier results, collected in US6689455B2, “Method of producing hexagonal ferrite and magnetic recording medium using said hexagonal ferrite” (Fuji Photo Film Co., Ltd., priority 2001, dated 2004).

Details: for pKa: value in parentheses after the compound name, acetic acid: 2 mol/l aqueous solution; for Organic matter pKa value: organic matter used to treat the ferrite powder, Tables 1 and 2; for pKa1: first dissociation of dicarboxylic acids

Structure (SMILES) | pKa | Organic matter pKa value | pKa1
O=S(=O)(O)c1ccccc1 [benzenesulfonic acid] | 2.55 |  | 
O=C(NO)c1ccccc1 [benzohydroxamic acid] | 2.3 |  | 
O=P([O-])([O-])CN(CCN(CCN(CP(=O)([O-])[O-])CP(=O)([O-])O)CP(=O)([O-])O)CP(=O)([O-])O.[Na+].[Na+].[Na+].[Na+].[Na+].[Na+].[Na+] [heptasodium diethylenetriamine-pentamethylene phosphonate] |  | 1.8 | 
O=P(O)(O)Oc1ccccc1 [phenoxyphosphonic acid] | 1.95 | 2.0 | 
O=P(O)(O)c1ccccc1 [phenylphosphonic acid] | 1.8 | 1.8 | 
O=C(O)c1ccccc1C(=O)O [phthalic acid] |  |  | 2.75
NS(=O)(=O)O [sulfaminic acid] | 1.65 |  | 
O=C(O)c1ccc(C(=O)O)cc1 [terephthalic acid] |  |  | 3.54
